Test results taken from patent publication US4109088A, “2-(Indenyloxymethyl) morpholine derivatives” (priority 1975, dated 1978).
Counter-ions that a name gives are not always drawn.

Legend:
[1] = system: reserpine induced ptoses and hypothermia; assay: Competitive effects on reserpine induced ptoses and hypothermia in mice (Experiment 3); type: in vivo, mice (male ICR-JCL strain weighing 25-35 g); settings: 10 mg/Kg, p.c. (so in the source), simultaneously with reserpine 2 mg/Kg i.p.; scored 0.5-6 hours; 10 mice
Protocol: The tested compound (10 mg/Kg, p.c.) and reserpine (2 mg/Kg, i.p.) were applied simultaneously to the mice and the degree of ptosis was scored according to the method of Ruben et al. (J. Pharmacol. Exptl. Ther., 120, 125, 1957) at 0.5, 1, 2, 3, 4, 5 and 6 hours after dosages, respectively.
Rectal temperature of the mice were also measured together with those of non-reserpinized mice. Inhibitory percent of the degree of ptosis and differences between rectal temperatures of reserpinized and non-reserpinized mice due to the tested compound are shown in the following Table. For each experiment 10 mice were used.

[2] = system: methamphetamine-induced stereotyped behavior; assay: Potentiation of methamphetamine-induced stereotyped behavior in rats (Experiment 1); type: in vivo, rats (male Wistar strain, aged 6 weeks); settings: for minimal effective dose: Rattus norvegicus, read-out: minimum effective dose causing statistically significant potentiation of the methamphetamine-induced stereotype; for minimum effective dose causing statistically significant potentiation of the methamphetamine-induced stereotype: i.p., 1 hour before methamphetamine 5 mg/Kg i.p., rats observed every 30 minutes until 5 hours
Protocol: The rats were placed in separate plastic cages for 1 hour to be accustomed to the experimental conditions, then the tested compounds were given intraperitoneally followed after 1 hour by an intraperitoneal application of methamphetamine (5 mg/Kg).

in vivo = settings: mouse, po, male, 25-35 g
Source text: Acute toxicity (ICR-JCR strain, male, weighing 25-35 g, p.o.)

[3] = Pharmacological activity of the isolated isomer salts (general statement); type: in vivo; settings: statement in words
[4] = system: reserpine-induced hypothermia; assay: Reserpine-induced hypothermia in mice (Experiment 7); settings: p.o.
[5] = system: methamphetamine-induced stereotyped behavior; assay: Methamphetamine-induced stereotyped behavior in rats (Experiment 6); type: in vivo, rats (male Wistar strain, aged 8 weeks)
Protocol: Effects of the compounds on methamphetamine-induced stereotyped behavior in rats (male Wistar strain, aged 8 weeks) were examined according to the method of Ueki et al. (Folia Pharmacologica Japonica, 68, 716, 1972).
The rats were placed in separate plastic cages for 1 hour to be accustomed to the experimental conditions and then the tested compounds were given intraperitoneally followed, after 1 hour, by an intraperitoneal application of methamphetamine (5 mg/kg). The influence of the tested compounds on the agitated behavior of the rats were observed every 30 minutes till 5 hours thereafter.

CC(C)N1CCOC(COc2cccc3c2CC=C3)C1 (stereo not shown) [Example 1, 4-isopropyl-2-(7-indenyloxymethyl)morpholine]
Inhibition of ptosis (%) [1]: 14.5%
minimal effective dose [2]: 0.3 mg/kg
LD50 (in vivo): 650 mg/kg

CN(C)CCC=C1c2ccccc2CCc2ccccc21 [Amitriptyline, reference compound]
minimal effective dose [2]: 10 mg/kg

mixture of 2-(4-indenyloxymethyl)morpholine and 2-(7-indenyloxymethyl) morpholine [Example 10]
minimum effective dose causing statistically significant potentiation of the methamphetamine-induced stereotype [2]: 0.3 mg/kg

C1=Cc2cccc(OCC3CNCCO3)c2C1 (stereo not drawn) [7-isomer acid addition salt, acid addition salt of 2-(7-indenyloxymethyl) morpholine]
pharmacological activity compared with the 4-isomer acid addition salt [3]: more preferable pharmacological activity than the 4-isomer acid addition salt

C1=Cc2cccc(OCC3CNCCO3)c2C1.Cl (stereo not shown) [2-(7-indenyloxymethyl)morpholine hydrochloride]
potency compared with 2-(4-indenyloxymethyl) morpholine hydrochloride [4]: more potent than the latter
relative potency vs 2-(4-indenyloxymethyl) morpholine hydrochloride ([5]; ratio of ED50, i.p.): 2.5 times

CC1=CCc2c(OCC3CN(C(C)C)CCO3)cccc21 (stereo not shown) [Example 12A, 4-isopropyl-2-(3-methyl-7-indenyloxymethyl)morpholine]
minimal effective dose [2]: 0.03 mg/kg

CCOc1ccccc1OCC1CNCCO1 (stereo not shown) [Viloxazine HCl, 2-(2-ethoxyphenoxymethyl) morpholine, reference compound]
Inhibition of ptosis (%) [1]: 6.0%
minimum effective dose causing statistically significant potentiation of the methamphetamine-induced stereotype [2]: non effective

CCCN1CCOC(COc2cccc3c2CC=C3)C1 (stereo not shown) [Example 6, 2-(7-indenyloxymethyl)-4-propylmorpholine]
minimal effective dose [2]: 1 mg/kg

CC1=CCc2cccc(OCC3CN(C(C)C)CCO3)c21 (stereo not shown) [Example 12B, 4-isopropyl-2-(3-methyl-4-indenyloxymethyl)morpholine]
minimal effective dose [2]: 0.3 mg/kg

CCN1CCOC(COc2cccc3c2CC=C3)C1 (stereo not shown) [Example 5, 4-ethyl-2-(7-indenyloxymethyl)morpholine]
minimal effective dose [2]: 0.3 mg/kg
LD50 (in vivo): 700 mg/kg

C1=Cc2c(cccc2OCC2CNCCO2)C1.Cl (stereo not shown) [2-(4-indenyloxymethyl)-morpholine hydrochloride]
ED50 ([5]; Rattus norvegicus, ip, 1 hour before methamphetamine 5 mg/kg i.p.): 5 mg/kg

CC1=CCc2c(OCC3CNCCO3)cccc21 (stereo not shown) [Example 11, 2-(3-methyl-7-indenyloxymethyl)morpholine]
minimal effective dose [2]: 0.3 mg/kg

CC(C)N1CCOC(COc2cccc3c2CCC3)C1 (stereo not shown) [Compound C, 2-(4-indanyloxymethyl)-4-isopropyl morpholine, reference compound]
minimum effective dose causing statistically significant potentiation of the methamphetamine-induced stereotype [2]: non effective

CCCCN1CCOC(COc2cccc3c2CC=C3)C1 (stereo not shown) [Example 2, 4-butyl-2-(7-indenyloxymethyl)-morpholine]
minimal effective dose [2]: 3 mg/kg
